According to patent US5191079A, “Quinolinecarboxylic acid derivatives” (priority 1990, dated 1993):
≈ marks a conversion by molar mass, not a printed value. Counter-ions that a name gives are not always drawn. Like-named read-outs stand apart in the source and are kept apart here.

Tests used:
Type in all cases: cell-based
[1] = test system: Staphylococcus aureus Cowan I (IID 975); test: MIC, Experiment 1; settings: IID975, S. aureus Cowan I (IID 975), Gram +, read-out: Min. inhib. concentr. (MIC)
In short: (§1)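 MIC was determined by the Japan Society of Chemotherapy agar dilution method, working from 1000 μg/ml standard solutions (DMSO or water stocks). S. pneumoniae was precultured in brain heart infusion broth and tested on heart infusion agar with 5% defibrinated horse blood. Other strains used sensitivity test broth and sensitivity test agar.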

[2] = test system: Staphylococcus aureus Terajima (IID 670); test: MIC, Experiment 1; settings: IID670, S. aureus Terajima (IID 670), Gram +, read-out: Min. inhib. concentr. (MIC)
In short: as §1

[3] = test system: Streptococcus pneumoniae IID 552; test: MIC, Experiment 1; settings: IID552, S. pneumoniae IID 552, Gram +, agar with 5% defibrinated horse blood, read-out: Min. inhib. concentr. (MIC)
In short: as §1

Bacillus cereus IAM 1029 = test: MIC, Experiment 1; settings: IAM1029, B. cereus IAM 1029, Gram +, read-out: Min. inhib. concentr. (MIC)
In short: as §1

[4] = test system: Streptococcus pyogenes Sv; test: MIC, Experiment 1; settings: S. pyogenes Sv, Gram +, agar with 5% defibrinated horse blood, read-out: Min. inhib. concentr. (MIC)
In short: (§2)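 Minimum inhibitory concentrations come from the Japan Society of Chemotherapy procedure. For streptococci, plates were heart infusion agar with 5% defibrinated horse blood after brain heart infusion broth preculture. Non-streptococcal strains were grown in sensitivity test broth and plated on sensitivity test agar.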

[5] = test system: Bacillus subtilis ATCC 6633; test: MIC, Experiment 1; settings: ATCC6633, B. subtilis ATCC 6633, Gram +, read-out: Min. inhib. concentr. (MIC)
In short: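 MIC was determined by the Japan Society of Chemotherapy standard method. For S. pneumoniae, preculture was in brain heart infusion broth and MIC was read on heart infusion agar with 5% defibrinated horse blood. Other strains were precultured in sensitivity test broth and tested on sensitivity test agar.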

[6] = test system: Staphylococcus aureus MS-353; test: MIC, Experiment 1; settings: MS353, S. aureus MS-353, Gram +, read-out: Min. inhib. concentr. (MIC)
In short: as §1

[7] = test system: Streptococcus pyogenes Cook; test: MIC, Experiment 1; settings: S. pyogenes Cook, Gram +, agar with 5% defibrinated horse blood, read-out: Min. inhib. concentr. (MIC)
In short: as §2

[8] = test system: Proteus mirabilis IFO 3849; test: MIC, Experiment 1; settings: IFO3849, P. mirabilis IFO 3849, Gram -, read-out: Min. inhib. concentr. (MIC)
In short: as §1

Enterobacter cloacae 963 = test: MIC, Experiment 1; settings: E. cloacae 963, Gram -, read-out: Min. inhib. concentr. (MIC)
In short: as §1

[9] = test system: Pseudomonas aeruginosa NCTC 10490; test: MIC, Experiment 1; settings: NCTC10490, P. aeruginosa NCTC 10490, Gram -, read-out: Min. inhib. concentr. (MIC)
In short: as §1

[10] = test system: Escherichia coli NIHJ JC-2; test: MIC, Experiment 1; settings: NIHJJC2, E. coli NIHJ JC-2, Gram -, read-out: Min. inhib. concentr. (MIC)
In short: as §1

[11] = test system: Streptococcus pyogenes Su; test: MIC, Experiment 1; settings: S. pyogenes Su, Gram +, agar with 5% defibrinated horse blood, read-out: Min. inhib. concentr. (MIC)
In short: as §2

[12] = test system: Staphylococcus aureus IID 803; test: MIC, Experiment 1; settings: IID803, S. aureus IID 803, Gram +, read-out: Min. inhib. concentr. (MIC)
In short: as §1

[13] = test system: clinically isolated Staphylococcus aureus; test: In vitro antibacterial activity against clinical isolates, Experiment 2; settings: for MIC50: 50% of strains, read-out: MIC50
In short: (§3)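 Clinical isolates collected Nov. 1988 to Jun. 1989 were precultured in sensitivity test broth. MIC was determined on sensitivity test agar. Compound standard solution was 1000 μg/ml (stock) in sterilized distilled water.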

[14] = test system: clinically isolated Enterococcus faecalis; test: as above; settings: for MIC90: 90% of strains, read-out: MIC90
In short: as §3

[15] = test system: clinically isolated Staphylococcus epidermidis; test: as above; settings: Staphylococcus epidermidis, 25 clinical strains S. epidermidis; for MIC50: 50% of strains, read-out: MIC50; for MIC90: 90% of strains, read-out: MIC90
In short: as §3

[16] = test system: clinically isolated Enterococcus faecium; test: as above
In short: as §3

[17] = test system: Staphylococcus epidermidis IAM 1296; test: MIC, Experiment 1; settings: IAM1296, S. epidermidis IAM 1296, Gram +, read-out: Min. inhib. concentr. (MIC)
In short: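 MIC by agar dilution per the Japan Society of Chemotherapy method, with compounds prepared as 5000 μg/ml stocks in DMSO or sterile water. Streptococci were precultured in brain heart infusion broth and tested on heart infusion agar with 5% defibrinated horse blood. Other organisms were precultured in sensitivity test broth and tested on sensitivity test agar.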

[18] = 25 clinical strains S. aureus incl. 16 methicillin resistant
[19] = 25 clinical strains E. faecalis

SMILES	MIC [1] [µg/mL]	MIC [2] [µg/mL]	MIC [3] [µg/mL]	MIC (Bacillus cereus IAM 1029) [µg/mL]	MIC [4] [µg/mL]	MIC [5] [µg/mL]	MIC [6] [µg/mL]	MIC [7] [µg/mL]	MIC [8] [µg/mL]	MIC (Enterobacter cloacae 963) [µg/mL]	MIC [9] [µg/mL]	MIC [10] [µg/mL]	MIC [11] [µg/mL]	MIC [12] [µg/mL]	MIC [13, 18] [µg/mL]	MIC50 [13, 18] [µg/mL]	MIC [14, 19] [µg/mL]	MIC90 [14, 19] [µg/mL]	MIC [15] [µg/mL]	MIC50 [15] [µg/mL]	other results
COCC1CN(c2c(F)cc3c(=O)c(C(=O)O)c4scc5n4c3c2N(C)C5)CCN1C (stereo not drawn) [Compound (J), 9,1-(Methylimino)methano-7-fluoro-8-(3-methoxymethyl-4-methyl-1-piperazinyl)-5-oxo-5H-thiazolo[3,2-a]quinoline-4-carboxylic acid hydrochloride]	0.05	0.1	0.05	0.1	0.1	0.05	0.1	0.1	1.56	0.39	1.56	0.39	0.1	0.1	0.05 to 6.25	0.1	0.2 to 12.5	12.5	0.05 to 6.25	0.1	MIC90 ([13]; 25 clinical strains S. aureus incl. 16 methicillin resistant, 90% of strains, read-out: MIC90): 3.13 µg/mL; MIC50 [14]: 0.39 µg/mL; MIC90 [15]: 3.13 µg/mL; MIC50 [16]: 3.13 µg/mL; MIC ([16]; 25 clinical strains E. faecium): 0.39 to 25 µg/mL; MIC90 ([16]; 25 clinical strains E. faecium, 90% of strains, read-out: MIC90): 12.5 µg/mL; MIC [17]: 0.2 µg/mL
COC[C@@H]1CN(c2c(F)cc3c(=O)c(C(=O)O)c4scc5n4c3c2N(C)C5)CCO1 [Compound (O), 9,1-(Methylimino)methano-7-fluoro-8-[(2S)-2-methoxymethylmorpholino)-5-oxo-5H-thiazolo[3,2-a]quinoline-4-carboxylic acid]	≤ 0.006	0.025 (≈ 0.0577 µM)	0.05 (≈ 0.115 µM)	0.025 (≈ 0.0577 µM)	0.05 (≈ 0.115 µM)	0.013 (≈ 0.03 µM)	0.013 (≈ 0.03 µM)	0.05 (≈ 0.115 µM)	0.78 (≈ 1.8 µM)	0.78 (≈ 1.8 µM)	0.78 (≈ 1.8 µM)	0.2 (≈ 0.461 µM)	0.05 (≈ 0.115 µM)	0.013 (≈ 0.03 µM)	0.006 to 0.78 (≈ 0.0138 to 1.8 µM)	0.013 (≈ 0.03 µM)	0.05 to 3.13 (≈ 0.115 to 7.22 µM)	3.13 (≈ 7.22 µM)	0.006 to 0.78 (≈ 0.0138 to 1.8 µM)	0.05 (≈ 0.115 µM)	MIC90 [13]: 0.78 µg/mL (≈ 1.8 µM); MIC50 ([14]; 25 clinical strains E. faecalis, 50% of strains, read-out: MIC50): 0.2 µg/mL (≈ 0.461 µM); MIC90 [15]: 0.39 µg/mL (≈ 0.9 µM); MIC50 [16]: 3.13 µg/mL (≈ 7.22 µM); MIC90 [16]: 6.25 µg/mL (≈ 14.4 µM); MIC ([16]; 25 clinical strains E. faecium): 0.1 to 12.5 µg/mL (≈ 0.231 to 28.8 µM); MIC [17]: 0.05 µg/mL (≈ 0.115 µM)
